Publication PMC7475179, “Characterization of a caffeoyl-CoA O-methyltransferase-like enzyme involved in biosynthesis of polymethoxylated flavones in Citrus reticulata” (Journal of Experimental Botany, 2020)

Test system: CrOMT1
Assay: MTase-Glo methyltransferase assay (SAH luminescence), Michaelis-Menten fit
Format: biochemical, Citrus reticulata
Conditions: 2 mM SAM, 50 mM Tris-HCl pH 8.0, 37 °C, 30 min

| SMILES | Km | further results |
| --- | --- | --- |
| COc1c(-c2ccc(O)c(O)c2)oc2cc(O)cc(O)c2c1=O [quercetin 3-methyl ether] | 3.9 ± 0.5 µM | – |
| O=c1cc(-c2ccccc2)oc2c(O)c(O)ccc12 [7,8-dihydroxyflavone] | – | Km (8-O-methylation): 1.8 ± 0.4 µM |
| O=c1cc(-c2ccc(O)c(O)c2)oc2cc(O)cc(O)c12 [luteolin, 5,7,3',4'-tetrahydroxyflavone] | – | Km (3'-O-methylation): 3.1 ± 0.6 µM |
| C[C@@H]1O[C@@H](OC[C@H]2O[C@@H](Oc3cc(O)c4c(c3)O[C@H](c3ccc(O)c(O)c3)CC4=O)[C@H](O)[C@@H](O)[C@@H]2O)[C@H](O)[C@H](O)[C@H]1O [eriocitrin, eriodictyol-7-O-rutinoside] | 7.9 ± 1 µM | – |
| O=c1cc(-c2ccccc2)oc2cc(O)c(O)c(O)c12 [baicalein] | – | Km (6-O-methylation): 3.3 ± 0.6 µM |
| O=c1c(O)c(-c2ccc(O)c(O)c2)oc2cc(O)cc(O)c12 [quercetin] | 4.5 ± 0.8 µM | – |

Continued, in another order:

| Km | SMILES | further results |
| --- | --- | --- |
| 0.6 µM | O=c1cc(-c2cc(O)c(O)c(O)c2)oc2cc(O)cc(O)c12 [tricetin] | – |
| 248 µM | O=c1c(O)c(-c2ccc(O)cc2)oc2cc(O)cc(O)c12 [kaempferol] | – |
| 61.8 ± 9.9 µM | O=C1C[C@@H](c2ccc(O)c(O)c2)Oc2cc(O)cc(O)c21 [eriodictyol] | – |
| 23.8 ± 4.3 µM | O=c1c(O)c(-c2cc(O)c(O)c(O)c2)oc2cc(O)cc(O)c12 [myricetin] | – |
| 8.7 ± 1 µM | C[C@@H]1O[C@@H](O[C@H]2[C@H](Oc3cc(O)c4c(c3)O[C@H](c3ccc(O)c(O)c3)CC4=O)O[C@H](CO)[C@@H](O)[C@@H]2O)[C@H](O)[C@H](O)[C@H]1O [neoeriocitrin, eriodictyol-7-O-neohesperidoside] | – |
